Assay results from patent publication US20190315823A1, “SMALL CATIONIC ANTI-BIOFILM AND IDR PEPTIDES” (priority 2013, published 2019).
Ends that are not written are not given here.

Experiments:
[1] = test system: methicillin resistant Staphylococcus aureus (MRSA) biofilm; details: approximate peptide concentration […] (around 3 μg/ml); compared to untreated samples
Protocol: Methods of assessment of anti-biofilm activity—Biofilm formation was initially analyzed using a static abiotic solid surface assay as described elsewhere (de la Fuente-Nunez et al., 2012). Dilutions (1/100) of overnight cultures were incubated in BM2 biofilm-adjusted medium [62 mM potassium phosphate buffer (pH 7), 7 mM (NH4)2SO4, 2 mM MgSO4, 10 μM FeSO4, 0.4% (wt/vol) glucose, 0.5% (wt/vol) Casamino Acids], or a nutrient medium such as Luria Broth, in polypropylene microtiter plates (Falcon, United States) in the absence (control) or presence of peptide. Peptide was added at time zero (prior to adding the diluted, overnight cultures) in varying concentrations, and the decrease in biofilm formation was recorded at 22-46 h for most bacteria. Planktonic cells were removed, biofilm cells adhering to the side of the tubes were stained with crystal violet, and absorbance at 595 nm was measured using a microtiter plate reader (Bio-Tek Instruments Inc., United States). Some peptides were screened against two Gram negative organisms, P. aeruginosa and K. pneumoniae using a Bioflux apparatus (AutoMate Scientific, Berkeley, Calif.; http://www.autom8.com/bioflux_biofilm.html), which allows for the high-throughput, real-time analysis of biofilms.

[2] = test system: human peripheral blood mononuclear cells (MCP-1); assay: SPOT-synthesized derivative screen: production of chemokine MCP-1; type: cell-based; details: Table 12, No LPS, human PBMC, peptide at ~18-24 μM; for MCP1: background subtracted 139 (HH2 derivatives), 170 (1018 derivatives), 242 (1002 and hybrid peptides) pg/ml
Protocol: Venous blood (20 ml) from healthy volunteers was collected in Vacutainer® collection tubes containing sodium heparin as an anticoagulant (Becton Dickinson, Mississauga, ON) in accordance with UBC ethical approval and guidelines. Blood was diluted 1:1 with complete RPMI 1640 medium and separated by centrifugation over a Ficoll-Paque® Plus (Amersham Biosciences, Piscataway, N.J., USA) density gradient. White blood cells were isolated from the buffy coat, washed twice in RPMI 1640 complete medium, and the number of peripheral blood mononuclear cells (PBMC) was determined by Trypan blue exclusion. PBMC (5×10^5) were seeded into 12-well tissue culture dishes (Falcon; Becton Dickinson) at 0.75 to 1×10^6 cells/ml at 37° C. in 5% CO2. The above conditions were chosen to mimic conditions for circulating blood monocytes entering tissues at the site of infection via extravasation.
Following incubation of the cells under various treatment regimens, the tissue culture supernatants were centrifuged at 1000×g for 5 min, then at 10,000×g for 2 min to obtain cell-free samples. Supernatants were aliquoted and then stored at −20° C. prior to assay for various chemokines by capture ELISA (eBioscience and BioSource International Inc., CA, USA respectively)

[3] = test system: LPS-stimulated human peripheral blood mononuclear cells (IL1-β); type: cell-based; details: Table 12, cells stimulated with 10 ng/ml LPS; for IL1β Production: LPS alone 1313 (HH2 derivatives), 1927 (1018 derivatives), 2455 (1002 and hybrid peptides) pg/ml
Protocol: LPS from P. aeruginosa strain H103 was highly purified free of proteins and lipids using the Darveau-Hancock method. Briefly, P. aeruginosa was grown overnight in LB broth at 37° C. Cells were collected and washed and the isolated LPS pellets were extracted with a 2:1 chloroform:methanol solution to remove contaminating lipids. Purified LPS samples were quantitated using an assay for the specific sugar 2-keto-3-deoxyoctosonic acid (KDO assay) and then resuspended in endotoxin-free water (Sigma-Aldrich).

Substance | % Biofilm inhibition [1] [%] | Fold increase in MCP1 cf. untreated cells [2] | MCP1 [2] [pg/mL] | Fold change in IL1β relative to no peptide LPS stimulated cells [3] | IL1β Production [3] [pg/mL]
HH2-A7: single substituted HH2 peptide (VQLRIRAAVIRA-NH2) | 57 | 1.3 | 59 | 1.30 | 1713
HH2-K2: single substituted HH2 peptide (VKLRIRVAVIRA-NH2) | 69 | 7.9 | 1168 | 0.71 | 937
1002-A7: single substituted 1002 peptide (VQRWLIAWRIRK-NH2) [Peptide 1002-A7] | 58 | 0.9 | -36.2 | 0.05 | 132
HH2-L10: single substituted HH2 peptide (VQLRIRVAVLRA-NH2) | 63 | 21 | 3338 | 1.04 | 1359
1018-I5: single substituted 1018 peptide (VRLIIAVRIWRR-NH2) [Peptide 1018-I5] | 60 | 13 | 2103 | 0.10 | 127
1002-W11: single substituted 1002 peptide (VQRWLIVWRIWK-NH2) [Peptide 1002-W11] | 37 | 0.9 | -36.2 | 0.05 | 127
1018-Q2: single substituted 1018 peptide (VQLIVAVRIWRR-NH2) [Peptide 1018-Q2] | 52 | 3.5 | 422 | 0.10 | 127
HH2-A2: single substituted HH2 peptide (VALRIRVAVIRA-NH2) | 69 | 3.8 | 471 | 1.23 | 1612
HH2-L12: single substituted HH2 peptide (VQLRIRVAVIRL-NH2) | 51 | 24 | 3916 | 0.23 | 301
HH2-W6: single substituted HH2 peptide (VQLRIWVAVIRA-NH2) | 56 | 4.1 | 534 | 0.55 | 718
HH2-I4: single substituted HH2 peptide (VQLIIRVAVIRA-NH2) | 47 | 11 | 1669 | 0.58 | 760
HH2-K4: single substituted HH2 peptide (VQLKIRVAVIRA-NH2) | 65 | 10 | 1553 | 0.58 | 759
HH2-I2: single substituted HH2 peptide (VILRIRVAVIRA-NH2) | 54 | 11 | 1748 | 0.81 | 1060
1018-V2: single substituted 1018 peptide (VVLIVAVRIWRR-NH2) [Peptide 1018-V2] | 67 | 1.3 | 56 | 0.12 | 159
1018-I11: single substituted 1018 peptide (VRLIVAVRIWIR-NH2) [Peptide 1018-I11] | 16 | 1.5 | 83 | 1.35 | 1775
1018-V4: single substituted 1018 peptide (VRLVVAVRIWRR-NH2) [Peptide 1018-V4] | 75 | 1.2 | 29 | 0.11 | 144
HH2-G10: single substituted HH2 peptide (VQLRIRVAVGRA-NH2) | 58 | 72 | 12063 | 1.06 | 1391
1018-L8: single substituted 1018 peptide (VRLIVAVLIWRR-NH2) [Peptide 1018-L8] | 40 | 0.5 | -83 | 0.42 | 553
HH2-Q4: single substituted HH2 peptide (VQLQIRVAVIRA-NH2) | 45 | 2.4 | 246 | 0.62 | 817
1002-V10: single substituted 1002 peptide (VQRWLIVWRVRK-NH2) [Peptide 1002-V10] | 63 | 2.3 | 308.0 | 0.05 | 127
1018-G1: single substituted 1018 peptide (GRLIVAVRIWRR-NH2) [Peptide 1018-G1] | 38 | 216 | 36611 | 0.10 | 127
1018-A3: single substituted 1018 peptide (VRAIVAVRIWRR-NH2) [Peptide 1018-A3] | 49 | 0.4 | -110 | 0.57 | 748
HH2-G12: single substituted HH2 peptide (VQLRIRVAVIRG-NH2) | 69 | 68 | 11442 | 1.09 | 1433
HH2-R10: single substituted HH2 peptide (VQLRIRVAVRRA-NH2) | 73 | 5.1 | 701 | 1.53 | 2003
HH2-L8: single substituted HH2 peptide (VQLRIRVLVIRA-NH2) | 50 | 107 | 17953 | 0.55 | 725
1018-G11: single substituted 1018 peptide (VRLIVAVRIWGR-NH2) [Peptide 1018-G11] | 40 | 48 | 7922 | 0.91 | 1189
